Read-outs that look alike come from different tables or passages of the source.
What was measured:
[1] = Liquid-liquid extraction of carboxylic acids from fermentation medium into oleyl alcohol at different pH; format: physicochemical
Experimental: (§1) The samples were subsequently incubated in a shaker at 30° C. and 300 rpm for 30 minutes. […] Finally, the aqueous broth samples were withdrawn from the upper section of the bottom phase for further analysis. […] The flow rate was 0.60 ml/min, the column temperature 40° C., the injection volume 10 ul and the run time was 58 minutes.

[2] = 30 min, pH 5.3
Experimental: The emulsions were rigorously vortexed and incubated at 30° C. and 300 rpm for 30 minutes. The emulsions were rigorously vortexed again, 1 mL sample was withdrawn and centrifuged in an Eppendorf table top centrifuge for 5 minutes at 16,000 rpm. Samples were taken from the top (extractant) as well as bottom (aqueous broth) phase and stored in the freezer at −20° C. for further analysis.
Aqueous broth samples were filtered through a 0.20 μm filter (Nanosept MF, Pall) and analyzed by HPLC. […] The flow rate was 0.08 ml/min, column temperature was 60° C., the injection volume was 10 ul and the sample run time was 38 minutes.
In subsequent calculations, the volume of water was corrected for the extracted volume, but no volume increase of the diluent was considered.
Partitioning of the deprotonated form of the acid was neglected, and only the protonated form was assumed to transition into the diluent oleyl alcohol.

[3] = Liquid-liquid extraction of isobutyric acid from fermentation medium into SOFA at different pH; format: physicochemical
Experimental: as §1

[4] = Liquid-liquid extraction of isobutyric acid from fermentation medium into oleic acid at different pH; format: physicochemical
Experimental: as §1

[5] = system: anaerobic inoculum; test: Acetate Toxicity Assays (ATA); format: cell-based
Experimental: For the BMP tests, iBA provided the sole source of substrate over a range of conditions. Feed controls were prepared at organic loadings that spanned the lower and upper range of loadings used in the ATA and BMP tests, and gas production was monitored. Samples were prepared in triplicate with the seed concentration for all test bottles being 2000 mg/L. The feed control and ATA biodegradable synthetic feed composition contained 4000 mg/L acetate and 2000 mg/L propionate. The inorganic nutrient media used was similar to media presented in Table 5.1 of […], Anaerobic Biotechnology for Industrial […], Vanderbilt University, […], Nashville, p 115 (1996). The bottles were maintained at a temperature of 35° C.

[6] = Liquid-liquid extraction of isobutyric acid from fermentation medium into COFA at different pH; format: physicochemical
Experimental: as §1

[7] = system: isobutanologen PNY 2242; test: SSF corn mash fermentation of isobutanologen with extractant layer; format: cell-based
Experimental: An isobutanologen was cultivated in 20 ml of corn mash in 125 ml shake flasks with a simultaneous saccharification and fermentation (SSF) process. […] The culture was incubated at 30° C. and 250 rpm for 24 hours in an Innova Laboratory Shaker (New Brunswick Scientific, Edison, N.J.). […] Resulting stage 2 cultures with total culture volume of 103 ml were incubated again at 250 rpm for 24 hours. […] Cultures were spun down at 9500 rpm for 20 minutes and supernatants were discarded. Cell pellet was re-suspended into 20 ml of production medium in the tubes.
The 20 ml cell cultures in the tubes were transferred into the shake flasks pre-filled with solvent. 50 μl of distillase added, and the shake flasks were closed with a close lid (for low oxygen/anaerobic cultivation). The flasks were subsequently incubated at 30° C. and 250 rpm for 48 hours. Each flask was sampled twice a day to measure glucose via YSI. After 48 hours, 2 ml aqueous and 1 ml of solvent phase were saved for exo-metabolite, starch and extractant analysis.
Extracellular compound analysis in supernatant was accomplished by HPLC. […] Flow rate was 0.60 ml/min, column temperature 40° C., injection volume 10 ul and run time 58 min.
For starch analysis, culture samples were centrifuged for 5 minutes at 14,000 rpm and solvent atop the aqueous layer was removed. Remaining aqueous fraction was re-suspended, thoroughly mixed and 0.30 g of the mixture transferred into previously weighted vials. […] Finally the samples were incubated for 5 minutes at 99° C. and 1100 rpm, transferred to previously weighted 10 mL volumetric flasks, filled at level with water, weights were recorded, 400 μl of the solution filtered through a centrifugal filter and subjected to HPLC analysis.
The cultures contained a second layer with either oleyl alcohol (OA) or an OA phase containing different portions of either trioctylamine (TOA) or aliquate for liquid-liquid extraction (LLX).

[8] = Reactive liquid-liquid extraction from aqueous compound solution into OA or OA with TBP, TOA or A336: aqueous concentrations; format: physicochemical; conditions: pH=5.3, 30° C.
Experimental: The emulsions were rigorously vortexed and incubated at 30° C. and 300 rpm for 30 minutes. The emulsions were rigorously vortexed again, 1 mL sample was withdrawn and centrifuged in an Eppendorf table top centrifuge for 5 minutes at 16,000 rpm. Samples were taken from the top (extractant) as well as bottom (aqueous broth) phase and stored in the freezer at −20° C. for further analysis. […] The flow rate was 0.08 ml/min, column temperature was 60° C., the injection volume was 10 ul and the sample run time was 38 minutes.

[9] = pH 3.14, ISPR ratio (Aq):(Oleyl Alcohol) 1:1
[10] = pH 3.14, ISPR ratio (Aq):(Oleyl Alcohol) 1:3
[11] = pH 4.94, ISPR ratio (Aq):(Oleyl Alcohol) 1:1
[12] = pH 4.94, ISPR ratio (Aq):(Oleyl Alcohol) 1:3
[13] = pH 7.24, ISPR ratio (Aq):(Oleyl Alcohol) 1:1
[14] = pH 7.24, ISPR ratio (Aq):(Oleyl Alcohol) 1:3
[15] = 2 mL extractant on 2 mL aqueous solution
[16] = 6 mL extractant on 2 mL aqueous solution
[17] = 10 mL extractant on 2 mL aqueous solution

For `CC(=O)O` [Acetic Acid, acetic acid], the “Conc. of acid in aqueous broth after extraction” value (“Conc. of acid in aqueous broth” for short) [1, 9] was 140040 µM, the “Conc. of acid in aqueous broth” value [1, 10] was 106430 µM and the “Conc. of acid in aqueous broth” value [1, 11] was 162730 µM. The “Conc. of acid in aqueous broth” value [1, 12] was 159230 µM, the “Conc. of acid in aqueous broth” value [1, 13] was 169150 µM and the “Conc. of acid in aqueous broth” value [1, 14] was 173630 µM.
For `CC(C)(O)CC(=O)O` [HMB], the “Conc. of acid in aqueous broth” value [1, 9] was 54070 µM, the “Conc. of acid in aqueous broth” value [1, 10] was 40280 µM and the “Conc. of acid in aqueous broth” value [1, 11] was 72000 µM. The “Conc. of acid in aqueous broth” value [1, 12] was 71860 µM, the “Conc. of acid in aqueous broth” value [1, 13] was 72460 µM and the “Conc. of acid in aqueous broth” value [1, 14] was 73310 µM.
In the case of `CC(C)CO` [Isobutanol, 2-methyl-1-propanol], the “Partition coefficients (P) [HA] org/aq” value [2] was 2.97 mol/mol.
In the case of `CC(C)C(=O)O` [Isobutyric Acid, isobutyric acid], the “Conc. Isobutyric Acid (%)” value ([3]; pH 3.93, ISPR ratio (Aq):(SOFA) 1:1) was 31.37%, the “Conc. Isobutyric Acid (%)” value ([3]; pH 3.93, ISPR ratio (Aq):(SOFA) 1:3) was 12.68% and the “Conc. Isobutyric Acid (%)” value ([3]; pH 4.92, ISPR ratio (Aq):(SOFA) 1:1) was 53.76%. The “Conc. Isobutyric Acid (%)” value ([3]; pH 4.92, ISPR ratio (Aq):(SOFA) 1:3) was 27.63%, the “Conc. Isobutyric Acid (%)” value ([3]; pH 6.64, ISPR ratio (Aq):(SOFA) 1:1) was 74.48% and the “Conc. Isobutyric Acid (%)” value ([3]; pH 6.64, ISPR ratio (Aq):(SOFA) 1:3) was 33.23%. For the same compound, the KE (+A336, oleyl alcohol with 100 mM of Aliquat 336) was 0.036, the KE (+TBA, oleyl alcohol with 100 mM of tributyl phosphate) was 0.000 and the KE (+TOA, oleyl alcohol with 100 mM of trioctyl amine) was 0.010. The “Conc. Isobutyric Acid (%)” value ([4]; pH 4.08, ISPR ratio (Aq):(Oleic Acid) 1:1) was 29.60%, the “Conc. Isobutyric Acid (%)” value ([4]; pH 4.08, ISPR ratio (Aq):(Oleic Acid) 1:3) was 13.00% and the “Conc. Isobutyric Acid (%)” value ([4]; pH 4.82, ISPR ratio (Aq):(Oleic Acid) 1:1) was 49.16%. The “Conc. Isobutyric Acid (%)” value ([4]; pH 4.82, ISPR ratio (Aq):(Oleic Acid) 1:3) was 23.36%, the “Conc. Isobutyric Acid (%)” value ([4]; pH 6.95, ISPR ratio (Aq):(Oleic Acid) 1:1) was 67.35% and the “Conc. Isobutyric Acid (%)” value ([4]; pH 6.95, ISPR ratio (Aq):(Oleic Acid) 1:3) was 28.60%. The “Partition coefficients (P) [HA] org/aq” value [2] was 1.91 mol/mol, the “Cumulative Gas Production (% Theoretical Max)” value ([5]; ATA-syn 550 ppm iBA, Day 2) was 18 % Theoretical Max and the “Cumulative Gas Production (% Theoretical Max)” value ([5]; ATA-syn 550 ppm iBA, Day 4) was 45 % Theoretical Max. The “Cumulative Gas Production (% Theoretical Max)” value ([5]; ATA-syn 550 ppm iBA, Day 6) was 65 % Theoretical Max, the “Cumulative Gas Production (% Theoretical Max)” value ([5]; ATA-syn 550 ppm iBA, Day 10) was 82 % Theoretical Max and the “Cumulative Gas Production (% Theoretical Max)” value ([5]; ATA-syn 550 ppm iBA, Day 12) was 85 % Theoretical Max. For the same compound, the “Cumulative Gas Production (% Theoretical Max)” value ([5]; ATA-syn 550 ppm iBA, Day 15) was 86 % Theoretical Max, the “Cumulative Gas Production (% Theoretical Max)” value ([5]; ATA-syn 825 ppm iBA, Day 2) was 14 % Theoretical Max and the “Cumulative Gas Production (% Theoretical Max)” value ([5]; ATA-syn 825 ppm iBA, Day 4) was 36 % Theoretical Max. The “Cumulative Gas Production (% Theoretical Max)” value ([5]; ATA-syn 825 ppm iBA, Day 6) was 56 % Theoretical Max, the “Cumulative Gas Production (% Theoretical Max)” value ([5]; ATA-syn 825 ppm iBA, Day 10) was 82 % Theoretical Max and the “Cumulative Gas Production (% Theoretical Max)” value ([5]; ATA-syn 825 ppm iBA, Day 12) was 83 % Theoretical Max. For the same compound, the “Cumulative Gas Production (% Theoretical Max)” value ([5]; ATA-syn 825 ppm iBA, Day 15) was 84 % Theoretical Max, the “Cumulative Gas Production (% Theoretical Max)” value ([5]; ATA-syn 1100 ppm iBA, Day 2) was 14 % Theoretical Max and the “Cumulative Gas Production (% Theoretical Max)” value ([5]; ATA-syn 1100 ppm iBA, Day 4) was 36 % Theoretical Max. The “Cumulative Gas Production (% Theoretical Max)” value ([5]; ATA-syn 1100 ppm iBA, Day 6) was 51 % Theoretical Max, the “Cumulative Gas Production (% Theoretical Max)” value ([5]; ATA-syn 1100 ppm iBA, Day 10) was 82 % Theoretical Max and the “Cumulative Gas Production (% Theoretical Max)” value ([5]; ATA-syn 1100 ppm iBA, Day 12) was 85 % Theoretical Max. For the same compound, the “Cumulative Gas Production (% Theoretical Max)” value ([5]; ATA-syn 1100 ppm iBA, Day 15) was 85 % Theoretical Max, the “inhibition of gas generation” value ([5]; iBA concentrations of up to 1100 parts per million (ppm)) was “did not inhibit gas generation” and the “Conc. of acid in aqueous broth” value [1, 9] was 19770 µM. For the same compound, the “Conc. of acid in aqueous broth” value [1, 10] was 8100 µM, the “Conc. of acid in aqueous broth” value [1, 11] was 46140 µM and the “Conc. of acid in aqueous broth” value [1, 12] was 30830 µM. For the same compound, the “Conc. of acid in aqueous broth” value [1, 13] was 93360 µM, the “Conc. of acid in aqueous broth” value [1, 14] was 91950 µM and the “Conc. Isobutyric Acid (%)” value ([6]; pH 4.08, ISPR ratio (Aq):(COFA) 1:1) was 29.81%. For the same compound, the “Conc. Isobutyric Acid (%)” value ([6]; pH 4.08, ISPR ratio (Aq):(COFA) 1:3) was 12.81%, the “Conc. Isobutyric Acid (%)” value ([6]; pH 4.82, ISPR ratio (Aq):(COFA) 1:1) was 52.89% and the “Conc. Isobutyric Acid (%)” value ([6]; pH 4.82, ISPR ratio (Aq):(COFA) 1:3) was 30.00%. The “Conc. Isobutyric Acid (%)” value ([6]; pH 6.95, ISPR ratio (Aq):(COFA) 1:1) was 70.40% and the “Conc. Isobutyric Acid (%)” value ([6]; pH 6.95, ISPR ratio (Aq):(COFA) 1:3) was 31.27%.
With `CCCCCCCC/C=C\CCCCCCCCO` [OA, oleyl alcohol] the “performance of the butanologen (glucose consumption, isobutanol production, FIG. 4)” value ([7]; 48 hours, extractant as LLX layer) was “performed best”, the “C (g/c) [g/L], free glucose during the SSF” value ([7]; EPT 3.67 h) was 37.2 g/L and the “C (g/c) [g/L], free glucose during the SSF” value ([7]; EPT 21.00 h) was 34.60 g/L. The “C (g/c) [g/L], free glucose during the SSF” value ([7]; EPT 28.00 h) was 29.7 g/L, the “C (g/c) [g/L], free glucose during the SSF” value ([7]; EPT 48.00 h) was 1.20 g/L and the “Acetic Acid (mM), aqueous concentration after addition of extractant” value (shortened to “Acetic Acid (mM), aqueous concentration”) [8, 15] was 13.13 mM. For the same compound, the “Formic Acid (mM), aqueous concentration after addition of extractant” value (shortened to “Formic Acid (mM), aqueous concentration”) [8, 15] was 11.96 mM, the “Isobutanol (mM), aqueous concentration after addition of extractant” value (shortened to “Isobutanol (mM), aqueous concentration”) [8, 15] was 3.01 mM and the “Isobutyric Acid (mM), aqueous concentration after addition of extractant” value (from here on “Isobutyric Acid (mM)”) [8, 15] was 8.01 mM. For the same compound, the “MES (AU), aqueous concentration after addition of extractant” value (“MES (AU), aqueous concentration” for short) [8, 15] was 6954908 AU, the “Phosphate (AU), aqueous concentration after addition of extractant” value (from here on “Phosphate (AU), aqueous concentration”) [8, 15] was 656297 AU and the “Acetic Acid (mM), aqueous concentration” value [8, 16] was 12.98 mM. The “Formic Acid (mM), aqueous concentration” value [8, 16] was 12.68 mM, the “Isobutanol (mM), aqueous concentration” value [8, 16] was 1.19 mM and the “Isobutyric Acid (mM)” value [8, 16] was 4.95 mM. For the same compound, the “MES (AU), aqueous concentration” value [8, 16] was 7135183 AU, the “Phosphate (AU), aqueous concentration” value [8, 16] was 673645 AU and the “Acetic Acid (mM), aqueous concentration” value [8, 17] was 12.73 mM. For the same compound, the “Formic Acid (mM), aqueous concentration” value [8, 17] was 13.05 mM, the “Isobutanol (mM), aqueous concentration” value [8, 17] was 0.77 mM and the “Isobutyric Acid (mM)” value [8, 17] was 3.57 mM. The “MES (AU), aqueous concentration” value [8, 17] was 7168671 AU and the “Phosphate (AU), aqueous concentration” value [8, 17] was 676874 AU.
With `CCCCCCCCN(CCCCCCCC)CCCCCCCC` [TOA, tru-n-octylamine] the “efficiency of extraction of isobutyric acid” value (100 mM extractant in oleyl alcohol) was “less efficient”.

— patent publication US20140142352A1, “BUTANOL PURIFICATION” (BUTAMAX ADVANCED BIOFUELS LLC, priority 2012, published 2014)
